Source: patent US20040091900A1, “Materials and methods for providing plants with increased resistance to environmental stress” (priority 2002, published 2004)

Assays:
SspI = experiment: Compatible solute assay: protection of SspI activity during heat treatment; assay type: biochemical; settings: for protection of SspI activity / protection of SspI function: 50° C. for 15 min; for protection of SspI activity, time course: at least 25 min at 50° C., without sugars almost 90% activity lost; for protection of SspI function: 14 mM sugar (physiological concentration)
Description: SspI (New England Biolabs) is a bacterial restriction enzyme that cuts double stranded DNA. In this assay it cuts pGEX-4T-2 circular plasmid twice and generates 3.77 kb and 1.19 kb bands in the reaction buffer (50 mM NaCl, 100 mM Tris-HCL, […] MgCl2, 0.025% Triton X-100 pH 7.5 at 25° C.). Five units of SspI in reaction buffer in the absence of maltose were exposed to 50° C. for 15 min where 50% of the enzyme activity was lost and also exposed to heat temperature in the presence of 14, 100, 200 and 400 mM maltose. Then substrate, 0.5 μg of pGEX-4T-2 circular plasmid (Amersham Biosciences, Piscataway, N.J.), was added to the reaction mixture and incubated at 37 ° C. for 1 hr. […] To visualize the products, 1% agarose gel was run and 22 μl of total 50 μl reaction was loaded on to gel. The gel was run at 100 V for 30 min and stained with EtBr to visualize the product. The top band was quantified to assess the protection by maltose. Also, the same assay was done using sucrose, trehalose and glucose to compare the ability of maltose as a compatible solute. A time course experiment was conducted where SspI was treated in the absence and in the presence of 400 mM maltose, glucose, sucrose and trehalose at 50° C. for 0, 5, 10, 15, 20 and 25 min.
Compatible solutes can stabilize proteins and membranes and contribute to cell osmotic potential during stress. The compatible solute potential of maltose was tested for three different enzymes namely; SspI, Glucose-6-phosphate dehydrogenase (G6PDH) and alcohol dehydrogenase (ADH). The restriction enzyme, SspI (FIG. 4A), cuts the substrate plasmid (pGEX-4T-2; 4.97 kb) twice leading to 1 and 4 kb plasmid fragments, when the enzyme is fully functional. […] When the intensity of the 5 kb top band and the 4 kb band was equal, the enzyme was considered to have lost 50% activity. Sspl was exposed to 50° C. for 15 min (FIG. 4A) in the absence of maltose (0 mM as a control) and in the presence of (14, 100, 200, and 400 mM) maltose. The 5 kb top band, which represented the loss of activity, was quantified to determine relative protection. When the enzyme was fully active, the top band was not visible (FIG. 4A, lane C) and the intensity of the top band increased with increased loss of enzyme activity (lane 2; 0 mM sugars). […] This protection increased with the increasing maltose concentration (FIG. 4A). At 200 and 400 mM, the intensity of the top band was much less compared to 0 mM maltose.

[1] = test system: photosynthetic electron transport chain of thylakoid membranes; experiment: In vitro heat shock of thylakoids, whole electron transport chain assay with DCPIP; assay type: biochemical, Pea; settings: 40° C. for 4 min, 30% activity remained without sugars
Description: (§1) Pea chloroplast was isolated according to Cline (1993). Aerial portions of 50 g pea plant were chopped into small pieces into 200 ml of ice cold GR-buffer (50 mM HEPES/adjust pH 7.5 with KOH, 0.33 M sorbitol, 1 mM MgCl2, 1 mM MnCl2, 2 mM EDTA, 5 mM Na-ascorbate, 1%, BSA) and homogenized using a probe (named PTA 35/2 m). The homogenate was filtered through 1 layer of Mira cloth and centrifuged at 2000×g for 3 min in a swing-out rotor. Pellet was resuspended in GR buffer, overlayed on a Percoll gradient and centrifuged at 2000×g for 15 min in a swing out rotor. Intact plastids were collected, diluted three times with buffer (50 MM HEPES/KOH pH 8, 0.33 M sorbitol), and pelleted 1.500×g for 5 min. The pellet was resuspended in 25 ml of buffer (50 mM HEPES/KOH pH 8, 0.33 M sorbitol) and chlorophyll content was quantified.
(§2) Thylakoids were isolated according to Santarius (1996). The isolated chloroplast pellets were ruptured by resuspending at 1 mg/ml in 10 mM Hepes/KOH, pH 8, 5 mM MgCl2, and incubating 2 min on ice. Then, wash buffer 1:1 (70 mM KCl, 30 mM NaNO3, 20 mM K2SO4, 5 mM MgCl2, and 5 mM Hepes/KOH pH 7.5) was added and centrifuged 3300×g for 8 min to collect thylakoid membranes. The pellet was washed at 1 mg/ml in wash buffer and centrifuged at 3300×g for 8 min. Thylakoids were resuspended in wash buffer corresponding to 1 mg/ml chlorophyll.
Heat shock: Aliquots of 0.2 ml thylakoid in wash buffer (70 mM KCl, 30 mM NaNO3, 20 mM K2SO4, 5 mM MgCl2, and 5 mM Hepes/KOH pH 7.5) corresponding to 0.5 mg/ml chlorophyll were, exposed to heat shock at 40° C. for 4 min in the absence and presence of 2.5, 14, 28, 56, and 112 mM maltose, glucose and trehalose. Full activity of the whole electron transport chain was measured after isolation of thylakoid membranes. Five independent experiments with 3 replications each were done.
(§3) Whole electron transport chain assay, with DCPIP: This assay was done according to Hipkins and Baker (1986). Assay buffer included 0.1 M sorbitol, 50 mM Hepes-KOH pH 7.6, 5 mM NaCl, 5 mM MgCl2, 0.1 mM DCPIP. The reaction was mixed after addition of thylakoid corresponding to 25 μg/ml chlorophyll and illuminated for 10 sec at 200 μmol photons m^−2 sec^−1 light intensity. Activity of electron transport chain was determined using redox dye DCPIP reduction at 595 nm.
Maltose, trehalose and glucose were tested in vitro for compatible solute properties using thylakoid membranes for the functionality of electron transport chain against heat denaturation (FIG. 5) and freezing stress (FIG. 6). Pea thylakoids were exposed to 40° C. for 4 min (FIG. 5), where 30% of electron transport chain activity remained in the absence of compatible solute sugars. Electron transport chain activity was followed by reduction of a redox dye 2,6-dichlorophenolindophenol (DCPIP), which accepts electrons from QB of PSII and FeSA of PSI (Häder and Tevini, 1987). At physiological concentrations of 2.5 and 14 mM maltose, photosynthetic electron transport chain activity was protected 3 and 5%. respectively, during heat shock.

[2] = test system: photosynthetic electron transport chain of thylakoid membranes; experiment: In vitro freezing stress of thylakoids, whole electron transport chain assay with DCPIP; assay type: biochemical, Pea; settings: −15° C. for 20 hr; for electron transport chain activity protection after freezing: 60% reduction without sugars
Description: as §1, §2
Freezing stress: Aliqutots of 0.2 ml thylakoid in wash buffer (70 mM KCl, 30 mM NaNO3, 20 mM K2SO4, 5 mM MgCl2, and 5 mM Hepes/KOH pH 7.5) corresponding to 0.5 mg/ml chlorophyll were exposed to freezing stress at −15° C. for 20 hrs in absence and presence of 2.5, 14, 28, 56, and 112 mM maltose, glucose and trehalose. Full activity of the whole electron transport chain was measured after isolation of thylakoid membranes. Four independent experiments with three (3) replications each were done.
as §3
Pea thylakoids were frozen (FIG. 6) at −15° C. for 20 hr, which caused a 60% reduction of electron transport chain activity. […] This protection increased gradually to 93% with the increasing concentration of maltose and was very similar to that of trehalose. Glucose at 112 mM gave 47% protection, which was much less than that of maltose or trehalose.

[3] = biological target: T1, Glucose-6-phosphate dehydrogenase (G6PDH) (Leuconostoc mesenteroides, UniProt P11411); experiment: Compatible solute assay: protection of G6PDH activity during heat shock; assay type: biochemical; settings: 14, 100, 200, 400 mM sugar, 48° C. for 15 min
T1 construct: purchased Worthington Biochemical Company
Description: Glucose-6-phosphate dehydrogenase (G6PDH): Lyophilized G6PDH from Leuconostoc mesenteroides was purchased from Worthington Biochemical Company. G6PDH in 50 mM Tris-HCl pH 7.8 was exposed to 48° C. for 15 min, which reduced activity by 50%. G6PDH in 50 mM Tris-HCl pH 7.8 was heat shocked in the absence and presence of 14, 100, 200, and 400 mM sugars: maltose, trehalose, glucose and sucrose. […] The reaction (1.5 ml) included 2.97 mM MgCl2, 50 mM Tris-HCl pH 7.8, 0.6 mM β-NADP^+ (freshly prepared), 10 mM Glucose-6-phosphate , and 595 ng heat shocked G6PDH. Production of NADPH was followed for 3 min at 340 nm using Lambda 3A UV/VIS spectrophotometer (PERKIN-ELMER). A time course experiment with two replications was conducted where G6PDH was treated in the absence and in the presence of 400 mM maltose, glucose, sucrose and trehalose at 48° C. for 0, 10, 15, 20 and 25 min.
To test whether this protection is general, compatible solute assays were performed using G6PDH, which uses D-glucose-6-phosphate and NAD(P)^+ as substrates to produce D-glucono-δ-lactone-P and NAD(P)H (FIG. 4B). […] The same performance was seen (FIG. 7B), when the time was extended to 25 min in the presence of 400 mM of the above sugars.

T1 sequence (P11411 whole entry): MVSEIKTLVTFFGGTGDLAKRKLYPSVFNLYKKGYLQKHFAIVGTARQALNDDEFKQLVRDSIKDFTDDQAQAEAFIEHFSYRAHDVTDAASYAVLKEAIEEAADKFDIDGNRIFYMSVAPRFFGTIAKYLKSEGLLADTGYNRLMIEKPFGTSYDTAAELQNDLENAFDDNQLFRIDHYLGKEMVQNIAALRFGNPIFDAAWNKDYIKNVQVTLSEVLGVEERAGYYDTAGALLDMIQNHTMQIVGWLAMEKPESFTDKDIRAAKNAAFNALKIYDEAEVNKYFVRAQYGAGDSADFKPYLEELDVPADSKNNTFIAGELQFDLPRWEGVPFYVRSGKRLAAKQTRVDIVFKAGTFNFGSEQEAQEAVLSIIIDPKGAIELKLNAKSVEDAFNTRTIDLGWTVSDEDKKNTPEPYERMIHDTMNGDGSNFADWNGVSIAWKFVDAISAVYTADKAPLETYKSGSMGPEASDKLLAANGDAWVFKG

| SMILES | protection of SspI activity (SspI; 400 mM sugar) | protection of SspI activity, time course (SspI; 400 mM sugar) | electron transport chain activity protected during heat shock ([1]; 112 mM sugar) [%] | electron transport chain activity protection after freezing ([2]; 112 mM sugar) [%] | protection of SspI function (SspI) | protection of SspI function (SspI; listed as Maltose) | protection of SspI activity (SspI; 200 mM sugar) | protection of G6PDH activity [3] | electron transport chain activity protected during heat shock ([1]; 2.5 mM sugar) [%] | electron transport chain activity protected during heat shock ([1]; 14 mM sugar) [%] | electron transport chain activity protection after freezing ([2]; 2.5 mM sugar) [%] | electron transport chain activity protection after freezing ([2]; 14 mM sugar) [%] | electron transport chain activity protection after freezing, reached with increasing concentration ([2]; increasing concentration (concentration not given; up to 112 mM tested)) [%] |
| --- | --- | --- | --- | --- | --- | --- | --- | --- | --- | --- | --- | --- | --- |
| O=C[C@H](O)[C@@H](O)[C@H](O)[C@H](O)CO [glucose, reference compound] | 100% | 100% | 30 | 47 |  |  |  |  |  |  |  |  |  |
| OC[C@H]1O[C@H](O[C@H]2[C@H](O)[C@@H](O)[C@H](O)O[C@@H]2CO)[C@H](O)[C@@H](O)[C@@H]1O [maltose, 4-O-α-D-Glucopyranosyl-β-D-glucose] | 85-90% | about 90% | 45 |  | able to partially protect SspI function | performed as well as trehalose | 80-90% | performed as well as the other compatible solute sugars | 3 | 5 | 2 | 24 | 93 |
| OC[C@H]1O[C@@](CO)(O[C@H]2O[C@H](CO)[C@@H](O)[C@H](O)[C@H]2O)[C@@H](O)[C@@H]1O [sucrose] | 100% | 100% |  |  |  |  |  |  |  |  |  |  |  |
| OC[C@H]1O[C@H](O[C@H]2O[C@H](CO)[C@@H](O)[C@H](O)[C@H]2O)[C@H](O)[C@@H](O)[C@@H]1O [trehalose] | 100% | 100% | 54 |  |  |  | 100% |  |  |  |  |  |  |
